# Test results as given in patent US20220048944A1, “FUNC[…] AS ANTIVIRAL AGENTS” (Enanta Pharmaceuticals, Inc., priority 2020, published 2022).
# Target: SARS-CoV-2 3CL-protease (Severe acute respiratory syndrome coronavirus 2, UniProt P0DTD1)
# Assay: SARS-CoV-2 3C-like (3CL) protease fluorescence assay (FRET)
# Assay type: biochemical
# Settings: recombinant SARS-CoV-2 3CL-protease 10 nM, TAMRA-[…]-Dabcyl-OH substrate, 30 min preincubation at RT, run in duplicate
# Protocol: SARS-CoV-2 3C-like (3CL) protease fluorescence assay (FRET): Recombinant SARS-CoV-2 3CL-protease was expressed and purified. […] Black, low volume, round-bottom, 384 well microplates were used. In a typical assay, 0.85 μL of test compound was dissolved in DMSO then incubated with SARS-CoV-2 3CL-protease (10 nM) in 10 μL assay buffer (50 mM HEPES [pH 7.5], 1 mM DTT, 0.01% BSA, 0.01% Triton-X 100) for 30 min at RT. Next, 10 μL of 3CL-protease substrate (40 μM) in assay buffer was added and the assays were monitored continuously for 1 h in an Envision multimode plate reader operating in fluorescence kinetics mode with excitation at 540 nm and emission at 580 nm at RT. No compound (DMSO only) and no enzyme controls were routinely included in each plate. All experiments were run in duplicate.
# Data were fitted to normalized activity (variable slope) versus concentration fit in GraphPad Prism 7 to determine IC50.
row,SMILES,IC50 [nM]
1,"N#C[C@H](C[C@@H]1CCNC1=O)NC(=O)[C@H](CC1CCCCC1)NC(=O)c1cc2ccccc2o1 [Example 22, N—((S)-1-(((S)-1-cyano-2-((S)-2-oxopyrrolidin-3-yl)ethyl)amino)-3-cyclohexyl-1-oxopropan-2-yl)benzofuran-2-carboxamide]",> 1000
2,"COc1cccc2[nH]c(C(=O)N[C@H](C(=O)N[C@H](C#N)C[C@@H]3CCNC3=O)c3ccccc3)cc12 [Example 5, N—((S)-2-(((S)-1-cyano-2-((S)-2-oxopyrrolidin-3-yl)ethyl)amino)-2-oxo-1-phenylethyl)-4-methoxy-1H-indole-2-carboxamide]",> 1000
3,"N#C[C@H](C[C@@H]1CCCNC1=O)NC(=O)[C@H](CC1CCCCC1)NC(=O)c1cc2ccccc2o1 [Example 15, N—((S)-1-(((S)-1-cyano-2-((S)-2-oxopiperidin-3-yl)ethyl)amino)-3-cyclohexyl-1-oxopropan-2-yl)benzofuran-2-carboxamide]",100 to 1000
4,"COc1cccc2[nH]c(C(=O)N[C@@H](Cc3ccccc3)C(=O)N[C@H](C#N)C[C@@H]3CCCNC3=O)cc12 [Example 18, N—((S)-1-(((S)-1-cyano-2-((S)-2-oxopiperidin-3-yl)ethyl)amino)-1-oxo-3-phenylpropan-2-yl)-4-methoxy-1_H-indole-2-carboxamide]",100 to 1000
5,"COc1cccc2[nH]c(C(=O)N[C@@H](CC3CCCC3)C(=O)N[C@H](C#N)C[C@@H]3CCNC3=O)cc12 [Example 10, N—((S)-1-(((S)-1-cyano-2-((S)-2-oxopyrrolidin-3-yl)ethyl)amino)-3-cyclopentyl-1-oxopropan-2-yl)-4-methoxy-1H-indole-2-carboxamide]",100 to 1000
6,"COc1cccc2[nH]c(C(=O)N[C@H](C(=O)N[C@H](C#N)C[C@@H]3CCNC3=O)C(C)C)cc12 [Example 7, N—((S)-1-(((S)-1-cyano-2-((S)-2-oxopyrrolidin-3-yl)ethyl)amino)-3-methyl-1-oxobutan-2-yl)-4-methoxy-1H-indole-2-carboxamide]",> 1000
7,"COc1cccc2[nH]c(C(=O)N[C@@H](CC(F)(F)F)C(=O)N[C@H](C#N)C[C@@H]3CCNC3=O)cc12 [Example 25, N—((S)-1-(((S)-1-cyano-2-((S)-2-oxopyrrolidin-3-yl)ethyl)amino)-4,4,4-trifluoro-1-oxobutan-2-yl)-4-methoxy-1H-indole-2-carboxamide]",100 to 1000
8,"COc1cccc2[nH]c(C(=O)N[C@@H](CC3CCCCC3)C(=O)N[C@H](C#N)C[C@@H]3CCCNC3=O)cc12 [Example 14, N—((S)-1-(((S)-1-cyano-2-((S)-2-oxopiperidin-3-yl)ethyl)amino)-3-cyclohexyl-1-oxopropan-2-yl)-4-methoxy-1H-indole-2-carboxamide]",< 100
9,"COc1cccc2[nH]c(C(=O)N[C@H](C(=O)N[C@H](C#N)C[C@@H]3CCNC3=O)C(C)(C)C)cc12 [Example 19, N—((S)-1-(((S)-1-cyano-2-((S)-2-oxopyrrolidin-3-yl)ethyl)amino)-3,3-dimethyl-1-oxobutan-2-yl)-4-methoxy-1H-indole-2-carboxamide]",> 1000
10,"CC(C)C[C@H](NC(=O)c1cc2ccccc2[nH]1)C(=O)N[C@H](C#N)C[C@@H]1CCNC1=O [Example 2, N—((S)-1-(((S)-1-cyano-2-((S)-2-oxopyrrolidin-3-yl)ethyl)amino)-4-methyl-1-oxopentan-2-yl)-1H-indole-2-carboxamide]",100 to 1000
11,"COc1cccc2[nH]c(C(=O)N[C@@H](CCSC)C(=O)N[C@H](C#N)C[C@@H]3CCNC3=O)cc12 [Example 12, N—((S)-1-(((S)-1-cyano-2-((S)-2-oxopyrrolidin-3-yl)ethyl)amino)-4-(methylthio)-1-oxobutan-2-yl)-4-methoxy-1H-indole-2-carboxamide]",100 to 1000
12,"COc1cccc2[nH]c(C(=O)N[C@@H](Cc3ccccc3)C(=O)N[C@H](C#N)C[C@@H]3CCNC3=O)cc12 [Example 3, N—((S)-1-(((S)-1-cyano-2-((S)-2-oxopyrrolidin-3-yl)ethyl)amino)-1-oxo-3-phenylpropan-2-yl)-4-methoxy-1H-indole-2-carboxamide]",100 to 1000
13,"COc1cccc2[nH]c(C(=O)N[C@H](C(=O)N[C@H](C#N)C[C@@H]3CCNC3=O)C3CCCCC3)cc12 [Example 6, N—((S)-2-(((S)-1-cyano-2-((S)-2-oxopyrrolidin-3-yl)ethyl)amino)-1-cyclohexyl-2-oxoethyl)-4-methoxy-1H-indole-2-carboxamide]",> 1000
14,"COc1cccc2[nH]c(C(=O)N[C@@H](CSC)C(=O)N[C@H](C#N)C[C@@H]3CCNC3=O)cc12 [Example 24, N—((R)-1-(((S)-1-cyano-2-((S)-2-oxopyrrolidin-3-yl)ethyl)amino)-3-(methylthio)-1-oxopropan-2-yl)-4-methoxy-1H-indole-2-carboxamide]",100 to 1000
15,"COc1cccc2[nH]c(C(=O)N[C@@H](CCCc3ccccc3)C(=O)N[C@H](C#N)C[C@@H]3CCNC3=O)cc12 [Example 11, N—((S)-1-(((S)-1-cyano-2-((S)-2-oxopyrrolidin-3-yl)ethyl)amino)-1-oxo-5-phenylpentan-2-yl)-4-methoxy-1H-indole-2-carboxamide]",> 1000
16,"COc1cccc2[nH]c(C(=O)N[C@@H](CC(C)C)C(=O)N[C@H](C#N)C[C@@H]3CCCNC3=O)cc12 [Example 16, N—((S)-1-(((S)-1-cyano-2-((S)-2-oxopiperidin-3-yl)ethyl)amino)-4-methyl-1-oxopentan-2-yl)-4-methoxy-1H-indole-2-carboxamide]",< 100
17,"COc1cccc2[nH]c(C(=O)N[C@@H](CCc3ccccc3)C(=O)N[C@H](C#N)C[C@@H]3CCNC3=O)cc12 [Example 8, N—((S)-1-(((S)-1-cyano-2-((S)-2-oxopyrrolidin-3-yl)ethyl)amino)-1-oxo-4-phenylbutan-2-yl)-4-methoxy-1H-indole-2-carboxamide]",100 to 1000
18,"CC(C)C[C@H](NC(=O)c1cc2ccccc2o1)C(=O)N[C@H](C#N)C[C@@H]1CCNC1=O [Example 13, N—((S)-1-(((S)-1-cyano-2-((S)-2-oxopyrrolidin-3-yl)ethyl)amino)-4-methyl-1-oxopentan-2-yl)benzofuran-2-carboxamide]",> 1000
